The source of these data is patent publication US20090209525A1, “ENABLING METHODS TO IDENTIFY ALLOSTERIC MODULATORS OF RECEPTOR ACTIVITY” (priority 2006, published 2009).

What all share (assay type): cell-based
For one assay, the target named is T1, rat M1 W101A receptor (Rattus norvegicus, UniProt P08482, W101A).
T1 construct: expressed in transfected cells
T1 sequence (P08482 1-460 W101A): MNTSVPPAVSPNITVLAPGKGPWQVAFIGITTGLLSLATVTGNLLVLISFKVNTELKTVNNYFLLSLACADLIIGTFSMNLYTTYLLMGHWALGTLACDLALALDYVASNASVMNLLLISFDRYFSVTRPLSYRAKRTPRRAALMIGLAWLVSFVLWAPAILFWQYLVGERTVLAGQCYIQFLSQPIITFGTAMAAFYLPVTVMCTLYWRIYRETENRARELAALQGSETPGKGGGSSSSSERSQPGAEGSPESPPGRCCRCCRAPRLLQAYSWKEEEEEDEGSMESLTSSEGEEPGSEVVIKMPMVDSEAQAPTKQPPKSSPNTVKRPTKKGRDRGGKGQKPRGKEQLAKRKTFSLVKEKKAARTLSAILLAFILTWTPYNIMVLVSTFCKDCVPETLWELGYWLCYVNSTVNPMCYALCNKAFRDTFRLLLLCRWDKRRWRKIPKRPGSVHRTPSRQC
As to the kind of experiment: R-SAT functional assay, W101A mutant. The conditions noted are these: for increase in potency relative to wild-type: R-SAT; for Shift: EC50 W101A divided by EC50 wild-type; for Eff (%): maximum response, normalized; for EC50: read-out: pEC50 (converted). Here is the method: (§1) Cells are co-transfected for 18 h with DMEM containing 0.08 micrograms/ml of an expression vector for the expression of the mutant receptor and 0.3 micrograms/ml pSI-Bgal (Promega, Madison Wis.), and 0.5% v/v Polyfect (Qiagen, Valencia Calif.), as recommended by the manufacturer. On day three, the medium is replaced with DMEM containing 1% PSG, 0.5% calf serum, 2% cyto-sf3 (Kemp Biotechnologies, Frederick, Md.), and varying concentrations of the compounds to be tested. Cells are grown in a humidified atmosphere with 5% ambient CO2 for 5 days. The media is removed from the plates, and beta-galactosidase activity is measured by the addition of o-nitrophenyl -d-galactopyranoside in phosphate-buffered saline with 5% Nonidet P-40. […] The following equation is fitted to the data using GraphPad Prism software (San Diego, Calif.):
(§2) NIH-3T3 cells were grown in 96-well tissue culture plates to 70 to 80% confluence in Dulbecco's modified essential media (DMEM) supplemented with 100 units/ml penicillin, 100 micrograms/ml streptomycin, 0.3 mg/ml L-glutamine (1% PSG, GIBCO) and 10% calf serum (Sigma-Aldrich). Cells were transfected for 18 h with DMEM containing 0.08 micrograms/ml receptor DNA and 0.3 micrograms/ml pSI-Bgal (Promega, Madison Wis.), 0.5% v/v Polyfect (Qiagen, Valencia Calif.). Medium was replaced with DMEM containing 1% PSG, 0.5% calf serum, 2% cyto-sf3 (Kemp Biotechnologies, Frederick, Md.), and varying concentrations of ligand. […] Cells were grown in a humidified atmosphere with 5% ambient CO2 for 5 days. Medium was removed from the plates, and beta-galactosidase activity was measured by the addition of o-nitrophenyl -d-galactopyranoside in phosphate-buffered saline with 5% Nonidet P-40.
Receptor Selection and Amplification (R-SAT™) Assays: R-SAT™ functional assays were carried out as follows. NIH-3T3 cells were grown in 96-well tissue culture plates to 70 to 80% confluence in Dulbecco's modified essential media (DMEM) supplemented with 100 units/ml penicillin, 100 micrograms/ml streptomycin, 0.3 mg/ml L-glutamine (1% PSG, GIBCO) and 10% calf serum (Sigma-Aldrich). Cells were transfected for 18 h with DMEM containing 0.08 micrograms/ml receptor DNA and 0.3 micrograms/ml pSI-Bgal (Promega, Madison Wis.), 0.5% v/v Polyfect (Qiagen, Valencia Calif.). The transfected cells were frozen away. Cells were thawed and added to 96 well plates with DMEM containing 1% PSG, 0.5% calf serum, 2% cyto-sf3 (Kemp Biotechnologies, Frederick, Md.), and varying concentrations of ligand.
In an effort to further characterize monoamine modulators, we used a panel of mutant muscarininc M1 receptors to analyze the activity and potency of orthosteric modulators and various allosteric modulators at those receptors.

The next assay deals with T2, rat M1 S109A receptor (Rattus norvegicus, UniProt P08482, S109A).
T2 construct: expressed in transfected cells
T2 sequence (P08482 1-460 S109A): T1 sequence (P08482 1-460 W101A) with A101W, S109A
As to the kind of experiment: R-SAT functional assay, S109A mutant. The conditions noted are these: Table 3; for Shift: EC50 S109A divided by EC50 wild-type; for EC50 / Eff (%): S109A; for Eff (%): maximum response, normalized. As for the experimental part: as §1, §2

A further assay deals with T3, rat M1 N110A receptor (Rattus norvegicus, UniProt P08482, N110A).
T3 construct: expressed in transfected cells; host or cells: NIH-3T3
T3 sequence (P08482 1-460 N110A): T1 sequence (P08482 1-460 W101A) with A101W, N110A
As to the kind of experiment: R-SAT functional assay, N110A mutant. The conditions noted are these: for Eff (%) / Shift / EC50: Table 3; for Eff (%): maximum response, normalized; for Shift: EC50 N110A divided by EC50 wild-type. Here is the method:
as §1, §2

The mark [1] stands for this setting: Table 4, M1 W101A, maximum response relative to xanomeline.
Setting [2] is: Table 10, M1 W101A, maximum response relative to AC-42.

Residue numbers refer to the chain shown, from its start. Where “and” joins values, the source holds several entries; their conditions need not be identical. Equal values may be shown once. Read-outs that look alike come from different tables or passages of the source.

`CCCCC1CCN(CCCC(=O)c2ccccc2C)CC1` [AC-42, 4-n-butyl-1-[4-(2-methylphenyl)-4-oxo-1-butyl] piperidine hydrogen chloride]: the “increase in potency relative to wild-type” value on rat M1 W101A receptor (W101A) was determined as 50 fold. Also, the Shift is recorded as 0.02 at rat M1 W101A receptor (Table 3) and 1 on rat M1 S109A receptor. Moreover, the “Eff (%)” value was determined as 95 ± 10% on rat M1 W101A receptor (Table 3, W101A); 59 ± 5% at rat M1 S109A receptor; 7 ± 1% on rat M1 N110A receptor (N110A). Besides, the EC50 was 3.16 nM on rat M1 W101A receptor (Table 3, W101A); 7.94 nM on rat M1 W101A receptor (Table 4, M1 W101A); 7.94 nM on rat M1 W101A receptor (Table 10, M1 W101A); 158 nM on rat M1 S109A receptor. The “% Eff” value on rat M1 W101A receptor (setting [1]) is on record as 97%; at rat M1 W101A receptor (setting [2]), 111%.
In the case of `CCCCC1CCN(CCCN2C(=O)COc3cc(F)ccc32)CC1` [AC-260584, 4-[3-(4-Butyl-piperidin-1-yl)-propyl]-7-fluoro-4H-benzo [1,4]oxazin-3-one], the “increase in potency relative to wild-type” value on rat M1 W101A receptor (W101A) is 33 fold and 30 fold. The Shift at rat M1 W101A receptor (Table 3) is reported as 0.03; at rat M1 S109A receptor it was 1; at rat M1 N110A receptor it was 43. The “Eff (%)” value at rat M1 W101A receptor (Table 3, W101A) was 100 ± 8%; at rat M1 S109A receptor, 104 ± 12%; on rat M1 N110A receptor (N110A), 38 ± 6%. In addition, the EC50 on rat M1 W101A receptor (Table 3, W101A) was 0.398 nM; at rat M1 W101A receptor (Table 4, M1 W101A), 0.2 nM; at rat M1 W101A receptor (Table 10, M1 W101A) it was 3.16 nM; on rat M1 S109A receptor, 15.8 nM; at rat M1 N110A receptor (N110A), 631 nM. Further, the “% Eff” value on rat M1 W101A receptor (setting [1]) stood at 98%; at rat M1 W101A receptor (setting [2]), 140%. The “decrease in potency relative to wild-type” value on rat M1 N110A receptor (R-SAT, N110A) came out at 30 fold.
Take `Clc1ccc2c(c1)N=C(N1CCNCC1)c1ccccc1N2` [NDMC, 8-chloro-11-(1-piperazinyl)-5H-dibenzo [b,e] [1,4] diazepine]: the Shift is recorded as 5 on rat M1 W101A receptor (Table 3), 2 at rat M1 S109A receptor and 21 at rat M1 N110A receptor. For the same compound, the “Eff (%)” value at rat M1 W101A receptor (Table 3, W101A) came out at 88 ± 12%; at rat M1 S109A receptor it was 68 ± 9%; on rat M1 N110A receptor (N110A), 66 ± 16%. The EC50 on rat M1 W101A receptor (Table 3, W101A) is 200 nM; on rat M1 W101A receptor (Table 4, M1 W101A), 39.8 nM; at rat M1 W101A receptor (Table 10, M1 W101A) it was 100 nM; at rat M1 S109A receptor, 100 nM; on rat M1 N110A receptor (N110A), 794 nM. In addition, the “% Eff” value was determined as 72% at rat M1 W101A receptor (setting [1]) and 93% on rat M1 W101A receptor (setting [2]).
